Experimental data reported in patent US20250084080A1, “CRYSTALLINE AND SALT FORMS OF AN NLRP3 INHIBITOR” (BioAge Labs, Inc., priority 2023, published 2025).

Legend:
Type in all cases: physicochemical
[1] = Bulk stability (solid state, 1 week; HPLC, XRPD, IC, color); design: key to CL (color): A: no change of color; B: slight discoloration; C: medium discoloration; D: strong discoloration; conditions: for Bulk (HPLC) Purity / Bulk (XRPD) / CL (color): Solid state
Protocol: Bulk stability of free form Pattern B was evaluated at 25° C./92.5% RH in an open container, at 40° C./75% RH in an open container and at 60° C. in a tight container over 1 week.

[2] = Solubility at 37° C. in buffers and biorelevant media, XRPD of residual solid; conditions: for solubility at 2 h / solubility at 24 h: thermodynamic from solid
Protocol: Solubility of BAL-0748 free form Pattern B was investigated in pH 1.2 HCl buffer, pH 4.5 50 mM acetate buffer, pH 6.8 50 mM phosphate buffer, water, pH 1.6 FaSSGF, pH 6.5 FaSSIF-v1, pH 5.0 FeSSIF-v1 and 2% HPMC+1% Pluronic F68 in pH 4.5 50 mM acetate buffer at 37° C. for 2 h and 24 h. Residual solids after the solubility test were analyzed by XRPD.
Solubility of the free form Pattern A, the HCl salt Pattern A, the phosphate salt Pattern A, and the sodium salt Pattern A was measured in pH 1.2 HCl buffer, pH 4.5 acetate buffer (50 mM), pH 6.8 phosphate buffer (50 mM), water, pH 1.6 FaSSGF, pH 6.5 FaSSIF-v1, pH 5.0 FeSSIF-v1, and 2% HPMC+1% Pluronic F68 in pH 4.5 acetate buffer (50 mM) at 37° C. for 2 hours and 24 hours.
10.4 mg of the free form Pattern A, 10.0 mg of the free form Pattern B, 10.8 mg of the HCl salt Pattern A, 12.2 mg of the phosphate salt Pattern A, or 10.5 mg of the sodium salt Pattern A was weighed into a 20 mL glass vial, respectively. 5 mL of solubility medium was added. The salt amount used was equivalent to 10 mg anhydrous free form. Obtained suspensions were stirred at 37° C. at 400 rpm and sampled at 2 hours and at 24 hours. The samples were centrifuged at 37° C. at 14,000 rpm for 5 min. Supernatants were analyzed by HPLC and PH meter for solubility and pH value, respectively. Residual solids (wet cakes) from the 24 hours samples were also characterized by XRPD to determine physical form.

[3] = Hygroscopicity by dynamic vapor sorption (DVS) at 25° C.; conditions: for Desorp. (%) / Sorp. (%): DVS 25° C.
Protocol: Dynamic vapor sorption (DVS) was performed on an Intrinsic, Advantage or Adventure with an oven temperature of 25° C. using water as a solvent. The sample mass was about 5-10 mg using the following method: • Cycle: 40-0-95-0-40% RH • Stage Step: 10% • Equilibrium: 0.002 dm/dt (%/min) • Minimum dm/dt stability duration: 60 min • Maximum dm/dt stage time: 360 min. Hygroscopicity of free form Pattern B was evaluated by dynamic vapor sorption (DVS) test at 25° C. […] It absorbed about 0.8% water at 80% RH at 25° C.

[4] = 25° C./92.5% RH open, 40° C./75% RH open, 60° C. tight container
[5] = aqueous buffer, pH 4.5 acetate buffer (50 mM), 37° C.
[6] = aqueous buffer, pH 6.8 phosphate buffer (50 mM), 37° C.
[7] = aqueous with cosolvent or surfactant or cyclodextrin, 2% HPMC + 1% Pluronic F68 in pH 4.5 acetate buffer (50 mM), 37° C.
[8] = fassgf or other biorelevant, FaSSGF, pH 1.6, 37° C.
[9] = simulated gastric fluid, pH 1.2 HCl buffer, 37° C.

SMILES: CCOc1cc(C(=O)N(C)Cc2cnc(CO)c3cn[nH]c23)ccc1-c1cc(F)cc(F)c1.O=P(O)(O)O [Phosphate salt Pattern A, 2-ethoxy-3′,5′-difluoro-N-((4-(hydroxymethyl)-1H-pyrazolo[4,3-c]pyridin-7-yl)methyl)-N-methyl-[1,1′-biphenyl]-4-carboxamide phosphoric acid salt]
- Bulk stability, chemical and physical [1, 4]: chemically and physically stable
- Degradation by HPLC [1, 4]: no obvious degradation
- Form change by XRPD [1, 4]: no form change
- Bulk (HPLC) Purity ([1]; 25° C./92.5% RH, open): 98.2%
- Bulk (XRPD) ([1]; 25° C./92.5% RH, open): No form change
- CL (color) ([1]; 25° C./92.5% RH, open): A
- Bulk (HPLC) Purity ([1]; 40° C./75% RH, open): 98.2%
- Bulk (XRPD) ([1]; 40° C./75% RH, open): No form change
- CL (color) ([1]; 40° C./75% RH, open): A
- Bulk (HPLC) Purity ([1]; 60° C., closed): 98.2%
- Bulk (XRPD) ([1]; 60° C., closed): No form change
- CL (color) ([1]; 60° C., closed): A
- pH of supernatant at 24 h ([2]; 2% HPMC + 1% Pluronic F68 in pH 4.5 acetate buffer (50 mM), 37° C.): (4.5)
- Solubility compared with the free form Pattern A ([2]; 2% HPMC+1% Pluronic F68 in acetate buffer (pH 4.5)): comparable solubility
- pH of supernatant at 24 h ([2]; FaSSGF, pH 1.6, 37° C.): (1.6)
- pH of supernatant at 24 h ([2]; FaSSIF-v1, pH 6.5, 37° C.): (6.2)
- pH of supernatant at 24 h ([2]; FeSSIF-v1, pH 5.0, 37° C.): (4.9)
- pH of supernatant at 24 h ([2]; Water, 37° C.): (2.6)
- solubility at 2 h [2, 5]: 9.4 µg/mL
- solubility at 24 h [2, 5]: 11.8 µg/mL
- solubility at 2 h [2, 6]: 2.4 µg/mL
- solubility at 24 h [2, 6]: 2.9 µg/mL
- solubility at 2 h [2, 7]: 16.4 µg/mL
- solubility at 24 h [2, 7]: 17.9 µg/mL
- solubility at 2 h [2, 8]: 710 µg/mL
- solubility at 24 h [2, 8]: 653 µg/mL
- pH of supernatant at 24 h ([2]; pH 1.2 HCl buffer, 37° C.): (1.2)
- pH of supernatant at 24 h ([2]; pH 4.5 acetate buffer (50 mM), 37° C.): (4.4)
- pH of supernatant at 24 h ([2]; pH 6.8 phosphate buffer (50 mM), 37° C.): (6.7)
- Solubility compared with the free form Pattern A ([2]; pure water): obviously higher solubility
- solubility at 2 h [2, 9]: 402 µg/mL
- solubility at 24 h [2, 9]: 390 µg/mL
- solubility at 2 h ([2]; FaSSIF-v1, pH 6.5, 37° C.): 8.4 µg/mL
- solubility at 24 h ([2]; FaSSIF-v1, pH 6.5, 37° C.): 13.7 µg/mL
- solubility at 2 h ([2]; FeSSIF-v1, pH 5.0, 37° C.): 140 µg/mL
- solubility at 24 h ([2]; FeSSIF-v1, pH 5.0, 37° C.): 159 µg/mL
- solubility at 2 h ([2]; Water, 37° C.): 384 µg/mL
- solubility at 24 h ([2]; Water, 37° C.): 442 µg/mL
- Desorp. (%) ([3]; 0% RH, 1st desorption): 0.03%
- Sorp. (%) ([3]; 0% RH, 1st sorption): 0.03%
- Desorp. (%) ([3]; 0% RH, 2nd desorption): 0.00%
- Sorp. (%) ([3]; 0% RH, 2nd sorption): 0.00%
- Desorp. (%) ([3]; 10% RH, 1st desorption): 0.12%
- Sorp. (%) ([3]; 10% RH, 1st sorption): 0.11%
- Desorp. (%) ([3]; 10% RH, 2nd desorption): 0.09%
- Sorp. (%) ([3]; 10% RH, 2nd sorption): 0.09%
- Desorp. (%) ([3]; 20% RH, 1st desorption): 0.16%
- Sorp. (%) ([3]; 20% RH, 1st sorption): 0.15%
- Desorp. (%) ([3]; 20% RH, 2nd desorption): 0.14%
- Sorp. (%) ([3]; 20% RH, 2nd sorption): 0.13%
- Desorp. (%) ([3]; 30% RH, 1st desorption): 0.20%
- Sorp. (%) ([3]; 30% RH, 1st sorption): 0.18%
- Desorp. (%) ([3]; 30% RH, 2nd desorption): 0.18%
- Sorp. (%) ([3]; 30% RH, 2nd sorption): 0.17%
- Desorp. (%) ([3]; 40% RH, 1st desorption): 0.24%
- Sorp. (%) ([3]; 40% RH, 1st sorption): 0.23%
- Desorp. (%) ([3]; 40% RH, 2nd desorption): 0.23%
- Sorp. (%) ([3]; 40% RH, 2nd sorption): 0.21%
- Sorp. (%) ([3]; 50% RH, 1st sorption): 0.27%
- Desorp. (%) ([3]; 50% RH, 2nd desorption): 0.29%
- Sorp. (%) ([3]; 60% RH, 1st sorption): 0.32%
- Desorp. (%) ([3]; 60% RH, 2nd desorption): 0.35%
- Sorp. (%) ([3]; 70% RH, 1st sorption): 0.37%
- Desorp. (%) ([3]; 70% RH, 2nd desorption): 0.41%
- Sorp. (%) ([3]; 80% RH, 1st sorption): 0.45%
- Desorp. (%) ([3]; 80% RH, 2nd desorption): 0.48%
- Sorp. (%) ([3]; 90% RH, 1st sorption): 0.61%
- Desorp. (%) ([3]; 90% RH, 2nd desorption): 0.63%
- Sorp. (%) ([3]; 95% RH, 1st sorption): 0.82%
- Desorp. (%) ([3]; 95% RH, 2nd desorption): 0.82%
- XRPD after DVS test ([3]; DVS at 25° C.): No form change
- Water absorbed at 80% RH ([3]; DVS at 25° C., 80% RH): It absorbed 0.5%
